# Assay results reported in PMC9288506, “Compounds activating VCP D1 ATPase enhance both autophagic and proteasomal neurotoxic protein clearance” (Nature Communications, 2022).
# How the values were obtained:
# Test in all cases: biochemical
# Design in all cases: Thermo Fisher in vitro kinase panel, per cent inhibition of kinase activity at 10 uM
# [1] = target: ALK (Homo sapiens, UniProt Q9UM73)
# Protocol: (§1) Kinase profiling of SMER28 and analogs SMER28 and analogs were tested at 10 µM in a panel of 123 kinases at ThermoFisher Scientific. Follow-up of selected kinases for SMER28 and analogs was also performed at ThermoFisher Scientific. Data are shown in Supplementary Data 2 and 3. […] An inhibition of PIK3C could induce autophagy, mediated by signaling through the AKT/mTOR axis[45].
# [2] = target: BLK (Homo sapiens, UniProt P51451)
# Protocol: as §1
# [3] = target: DMPK (Homo sapiens, UniProt Q09013)
# Protocol: as §1
# [4] = target: FGFR1 V561M (Homo sapiens, UniProt P11362, V561M)
# Protocol: as §1
# [5] = target: FGFR2 (Homo sapiens, UniProt P21802)
# Protocol: as §1
# [6] = target: FLT1 (VEGFR1) (Homo sapiens, UniProt P17948)
# Protocol: as §1
# [7] = target: JAK1 (Homo sapiens, UniProt P23458)
# Protocol: as §1
# [8] = target: JAK2 (Homo sapiens, UniProt O60674)
# Protocol: as §1
# [9] = target: JAK3 (Homo sapiens, UniProt P52333)
# Protocol: as §1
# [10] = target: LCK (Homo sapiens, UniProt P06239)
# Protocol: as §1
# [11] = target: T1, LYN A (Homo sapiens, UniProt P07948)
# T1 construct: isoform A
# Protocol: as §1
# [12] = target: MAPKAPK2 (Homo sapiens, UniProt P49137)
# Protocol: as §1
# [13] = target: MET (cMet) (Homo sapiens, UniProt P08581)
# Protocol: as §1
# [14] = target: MST1R (RON) (Homo sapiens, UniProt Q04912)
# Protocol: as §1
# [15] = target: MYLK (MLCK) (Homo sapiens, UniProt Q15746)
# Protocol: as §1
# [16] = target: PIK3C3 (hVPS34) (Homo sapiens, UniProt Q8NEB9)
# Protocol: as §1
# [17] = target: PIK3CB/PIK3R1 (p110 beta/p85 alpha) (Homo sapiens, UniProt P42338)
# Protocol: as §1
# [18] = target: PIK3CD/PIK3R1 (p110 delta/p85 alpha) (Homo sapiens, UniProt O00329)
# Protocol: as §1
# [19] = target: PIK3CG (p110 gamma) (Homo sapiens, UniProt P48736)
# Protocol: as §1
# [20] = target: PRKACA (PKA) (Homo sapiens, UniProt P17612)
# Protocol: as §1
# [21] = target: PRKCA (PKC alpha) (Homo sapiens, UniProt P17252)
# Protocol: as §1
# [22] = target: PRKG1 (Homo sapiens, UniProt Q13976)
# Protocol: as §1
# [23] = target: SRC (Homo sapiens, UniProt P12931)
# Protocol: as §1
# [24] = target: TBK1 (Homo sapiens, UniProt Q9UHD2)
# Protocol: as §1
# [25] = target: TNIK (Homo sapiens, UniProt Q9UKE5)
# Protocol: as §1
# Sequence of ALK (Q9UM73 whole entry): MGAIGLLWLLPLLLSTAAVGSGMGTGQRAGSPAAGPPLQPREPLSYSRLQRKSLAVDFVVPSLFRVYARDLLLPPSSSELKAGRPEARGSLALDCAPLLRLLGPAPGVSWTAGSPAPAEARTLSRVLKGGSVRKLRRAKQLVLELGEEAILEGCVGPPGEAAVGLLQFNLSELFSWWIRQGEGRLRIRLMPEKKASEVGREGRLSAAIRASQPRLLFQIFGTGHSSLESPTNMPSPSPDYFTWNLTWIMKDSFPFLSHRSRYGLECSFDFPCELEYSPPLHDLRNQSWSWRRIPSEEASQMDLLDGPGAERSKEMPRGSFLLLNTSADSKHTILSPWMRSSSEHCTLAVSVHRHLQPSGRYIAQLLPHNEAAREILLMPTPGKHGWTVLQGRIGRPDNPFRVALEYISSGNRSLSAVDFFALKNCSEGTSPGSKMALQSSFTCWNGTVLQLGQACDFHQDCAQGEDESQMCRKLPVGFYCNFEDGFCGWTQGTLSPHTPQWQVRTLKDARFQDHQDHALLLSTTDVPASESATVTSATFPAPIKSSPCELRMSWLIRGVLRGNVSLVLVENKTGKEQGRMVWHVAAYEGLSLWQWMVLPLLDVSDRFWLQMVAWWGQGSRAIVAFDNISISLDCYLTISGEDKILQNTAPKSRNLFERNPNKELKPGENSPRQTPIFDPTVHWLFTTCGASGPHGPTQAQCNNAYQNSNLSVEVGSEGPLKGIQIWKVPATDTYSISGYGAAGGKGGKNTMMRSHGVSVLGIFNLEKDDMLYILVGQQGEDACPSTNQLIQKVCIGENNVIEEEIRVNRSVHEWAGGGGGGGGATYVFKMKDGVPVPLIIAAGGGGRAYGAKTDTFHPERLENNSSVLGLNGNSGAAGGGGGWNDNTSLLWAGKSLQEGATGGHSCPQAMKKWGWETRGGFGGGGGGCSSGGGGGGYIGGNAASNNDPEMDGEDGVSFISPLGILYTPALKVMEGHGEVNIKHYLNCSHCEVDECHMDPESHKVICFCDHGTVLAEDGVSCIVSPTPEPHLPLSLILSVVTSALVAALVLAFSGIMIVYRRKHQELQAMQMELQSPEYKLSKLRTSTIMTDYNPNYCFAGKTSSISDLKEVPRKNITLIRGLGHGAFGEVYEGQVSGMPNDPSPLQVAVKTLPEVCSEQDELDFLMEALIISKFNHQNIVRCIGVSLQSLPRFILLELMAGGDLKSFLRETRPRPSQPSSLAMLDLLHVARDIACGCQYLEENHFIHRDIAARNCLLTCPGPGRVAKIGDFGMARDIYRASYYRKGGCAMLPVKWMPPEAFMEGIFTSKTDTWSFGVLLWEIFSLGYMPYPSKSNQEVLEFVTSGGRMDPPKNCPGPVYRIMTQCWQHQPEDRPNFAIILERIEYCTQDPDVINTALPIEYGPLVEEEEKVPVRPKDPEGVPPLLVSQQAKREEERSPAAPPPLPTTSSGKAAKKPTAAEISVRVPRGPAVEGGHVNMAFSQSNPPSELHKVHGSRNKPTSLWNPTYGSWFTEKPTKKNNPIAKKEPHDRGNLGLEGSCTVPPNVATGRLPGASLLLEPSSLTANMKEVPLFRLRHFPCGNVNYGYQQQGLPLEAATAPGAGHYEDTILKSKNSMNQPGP
# Sequence of FLT1 (VEGFR1) (P17948 whole entry): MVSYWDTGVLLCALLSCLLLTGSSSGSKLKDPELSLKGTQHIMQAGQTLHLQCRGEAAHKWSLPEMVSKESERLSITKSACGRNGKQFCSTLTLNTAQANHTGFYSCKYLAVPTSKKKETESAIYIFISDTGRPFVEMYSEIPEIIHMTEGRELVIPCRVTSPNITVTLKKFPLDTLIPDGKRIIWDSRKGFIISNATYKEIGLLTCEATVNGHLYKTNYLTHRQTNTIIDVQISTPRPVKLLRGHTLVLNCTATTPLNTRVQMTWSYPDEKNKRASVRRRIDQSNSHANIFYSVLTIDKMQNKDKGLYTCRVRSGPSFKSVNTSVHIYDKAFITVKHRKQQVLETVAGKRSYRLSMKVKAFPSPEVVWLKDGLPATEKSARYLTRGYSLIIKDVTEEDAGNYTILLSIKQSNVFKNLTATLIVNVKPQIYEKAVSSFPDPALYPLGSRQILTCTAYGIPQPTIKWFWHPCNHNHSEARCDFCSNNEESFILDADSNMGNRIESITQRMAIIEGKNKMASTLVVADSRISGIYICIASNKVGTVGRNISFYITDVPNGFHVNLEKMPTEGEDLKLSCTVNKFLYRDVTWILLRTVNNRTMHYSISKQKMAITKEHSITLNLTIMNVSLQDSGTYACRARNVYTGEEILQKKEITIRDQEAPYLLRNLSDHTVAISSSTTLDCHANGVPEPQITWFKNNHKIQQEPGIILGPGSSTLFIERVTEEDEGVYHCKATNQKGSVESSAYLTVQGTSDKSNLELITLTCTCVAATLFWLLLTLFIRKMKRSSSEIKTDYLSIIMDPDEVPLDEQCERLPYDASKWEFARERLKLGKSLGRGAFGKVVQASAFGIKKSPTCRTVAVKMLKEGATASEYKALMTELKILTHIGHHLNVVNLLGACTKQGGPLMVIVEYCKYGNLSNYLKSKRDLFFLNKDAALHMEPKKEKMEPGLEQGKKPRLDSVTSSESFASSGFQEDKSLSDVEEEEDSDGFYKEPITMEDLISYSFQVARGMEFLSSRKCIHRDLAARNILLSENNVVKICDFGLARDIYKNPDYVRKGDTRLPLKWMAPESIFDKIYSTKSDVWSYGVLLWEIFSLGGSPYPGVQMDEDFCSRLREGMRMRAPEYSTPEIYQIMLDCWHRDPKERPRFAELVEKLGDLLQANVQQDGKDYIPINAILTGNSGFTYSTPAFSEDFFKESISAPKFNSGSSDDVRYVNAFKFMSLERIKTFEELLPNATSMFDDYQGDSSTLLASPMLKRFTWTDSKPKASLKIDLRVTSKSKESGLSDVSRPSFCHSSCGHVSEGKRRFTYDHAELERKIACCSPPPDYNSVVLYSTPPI
# Sequence of FGFR1 V561M (P11362 whole entry V561M): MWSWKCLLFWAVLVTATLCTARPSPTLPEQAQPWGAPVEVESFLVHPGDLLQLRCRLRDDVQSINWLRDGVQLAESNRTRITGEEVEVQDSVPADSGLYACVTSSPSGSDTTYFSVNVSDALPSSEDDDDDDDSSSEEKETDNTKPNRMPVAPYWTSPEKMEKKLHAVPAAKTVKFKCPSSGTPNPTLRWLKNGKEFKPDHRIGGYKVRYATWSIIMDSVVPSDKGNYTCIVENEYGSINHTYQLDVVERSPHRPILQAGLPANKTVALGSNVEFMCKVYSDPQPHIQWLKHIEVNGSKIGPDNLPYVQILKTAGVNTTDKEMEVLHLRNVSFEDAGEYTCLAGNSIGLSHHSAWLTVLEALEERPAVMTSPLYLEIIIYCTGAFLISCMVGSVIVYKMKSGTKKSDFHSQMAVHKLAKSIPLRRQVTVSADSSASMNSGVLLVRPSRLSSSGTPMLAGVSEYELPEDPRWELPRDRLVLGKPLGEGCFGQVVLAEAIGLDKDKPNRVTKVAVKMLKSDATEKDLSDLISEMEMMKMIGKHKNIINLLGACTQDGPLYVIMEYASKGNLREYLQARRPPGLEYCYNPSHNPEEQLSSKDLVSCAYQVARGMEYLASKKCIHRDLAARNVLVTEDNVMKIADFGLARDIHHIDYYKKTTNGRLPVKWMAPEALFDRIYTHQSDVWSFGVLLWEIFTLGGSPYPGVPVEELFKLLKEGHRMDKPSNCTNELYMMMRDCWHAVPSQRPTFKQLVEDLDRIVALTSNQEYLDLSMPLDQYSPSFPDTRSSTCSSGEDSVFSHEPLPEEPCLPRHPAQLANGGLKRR
# Sequence of MAPKAPK2 (P49137 whole entry): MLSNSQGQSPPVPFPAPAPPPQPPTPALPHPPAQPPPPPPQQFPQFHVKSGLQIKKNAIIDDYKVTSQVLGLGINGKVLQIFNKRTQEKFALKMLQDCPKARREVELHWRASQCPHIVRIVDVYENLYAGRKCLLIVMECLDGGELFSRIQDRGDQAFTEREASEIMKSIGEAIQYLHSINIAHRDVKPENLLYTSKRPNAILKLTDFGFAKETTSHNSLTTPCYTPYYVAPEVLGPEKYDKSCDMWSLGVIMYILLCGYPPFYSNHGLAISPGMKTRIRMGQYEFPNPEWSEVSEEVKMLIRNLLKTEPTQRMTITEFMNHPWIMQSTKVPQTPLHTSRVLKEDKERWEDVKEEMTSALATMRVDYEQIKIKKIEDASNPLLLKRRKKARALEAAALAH
smiles,measurement,setting,value
C=CCNc1ncnc2ccc(Br)cc12 [SMER28],inhibition at 10 µM,[1],25%
same,inhibition at 10 µM,[2],4%
same,inhibition at 10 µM,[3],57%
same,inhibition at 10 µM,[4],9%
same,inhibition at 10 µM,[5],19%
same,inhibition at 10 µM,[6],9%
same,inhibition at 10 µM,[7],-13%
same,inhibition at 10 µM,[8],3%
same,inhibition at 10 µM,[9],14%
same,inhibition at 10 µM,[10],19%
same,inhibition at 10 µM,[11],20%
same,inhibition at 10 µM,[12],0%
same,inhibition at 10 µM,[13],8%
same,inhibition at 10 µM,[14],-4%
same,inhibition at 10 µM,[15],12%
same,inhibition at 10 µM,[16],12%
same,inhibition at 10 µM,[17],23%
same,inhibition at 10 µM,[18],78%
same,inhibition at 10 µM,[19],65%
same,inhibition at 10 µM,[20],10%
same,inhibition at 10 µM,[21],10%
same,inhibition at 10 µM,[22],6%
same,inhibition at 10 µM,[23],2%
same,inhibition at 10 µM,[24],4%
same,inhibition at 10 µM,[25],38%
